Test results from patent publication US11596639B2, “Substituted indole Mcl-1 inhibitors” (Vanderbilt University, priority 2016, dated 2023).
Like-named read-outs stand apart in the source and are kept apart here.

What was measured:
Mcl-1 = Mcl-1 (Homo sapiens (Human), UniProt Q07820); assay: Fluorescence polarization anisotropy (FPA) competition assay, FITC-Bak or FITC-Bim BH3 peptide; assay type: binding; conditions: read-out: Ki for Inhibition of Mcl-1 by FPA assay
[1] = system: H929 human cancer cell lines; assay: Cellular viability / proliferation (Cell TiterGlo, 72 h); assay type: cell-based
Procedure, shortened: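 Plating is at 1,000 cells/well in 10% FBS medium; after 24 h, compound is added as a 2-fold series starting at 50 μM with under 1% DMSO.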

[2] = Homo sapiens, NCI-H929, 72 h, read-out: GI50 on cellular proliferation of H929 human cancer cell lines, H929 cells, 72 h, Cell TiterGlo, 10% FBS

Chain of Mcl-1 (Q07820 172-327): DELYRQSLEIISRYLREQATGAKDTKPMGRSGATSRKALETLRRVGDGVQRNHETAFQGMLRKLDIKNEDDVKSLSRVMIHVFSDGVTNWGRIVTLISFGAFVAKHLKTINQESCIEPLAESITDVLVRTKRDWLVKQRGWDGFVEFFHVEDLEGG

Row | Compound | Ki (Mcl-1) [nM] | GI50 [1, 2] [nM] | GI50 ([1]; H929 cells, 72 h, Cell TiterGlo, 10% FBS, read-out: GI50 on cellular proliferation of H929 human cancer cell lines) [nM]
1 | Cc1cc(OCCCc2c3n(c4c(-c5c(C)ncnc5C)c(Cl)ccc24)CCCN(c2cccc4cc(C(=O)O)n(Cc5ccccn5)c24)C3=O)cc(C)c1Cl [Example 279, 7-(8-Chloro-11-(3-(4-chloro-3,5-dimethylphenoxy)propyl)-7-(4,6-dimethylpyrimidin-5-yl)-1-oxo-4,5-dihydro-1H-[1,4]diazepino[1,2-a]indol-2(3H)-yl)-1-(pyridin-2-ylmethyl)-1H-indole-2-carboxylic acid] | 1 | 3300 | –
2 | Cc1cc(OCCCc2c3n(c4c(-c5c(C)nc(CN6CCOCC6)nc5C)c(Cl)ccc24)[C@H](C)CN(c2cn(C)c4ccc(C(=O)O)cc24)C3=O)cc(C)c1Cl [Example 398, (R)-3-(7-Chloro-10-(3-(4-chloro-3,5-dimethylphenoxy)propyl)-6-(4,6-dimethyl-2-(morpholinomethyl)pyrimidin-5-yl)-4-methyl-1-oxo-3,4-dihydropyrazino[1,2-a]indol-2(1H)-yl)-1-methyl-1H-indole-5-carboxylic acid] | < 1 | 200 | –
3 | Cc1cc(OCCCc2c3n(c4c(-c5c(C)nn(C)c5C)c(Cl)ccc24)[C@H](C)CN(c2cccc4cc5n(c24)CCN(C)C5=O)C3=O)cc(C)c1Cl [Example 226, (4R)-7-chloro-10-[3-(4-chloro-3,5-dimethyl-phenoxy)propyl]-4-methyl-2-(2-methyl-1-oxo-3,4-dihydropyrazino[1,2-a]indol-6-yl)-6-(1,3,5-trimethylpyrazol-4-yl)-3,4-dihydropyrazino[1,2-a]indol-1-one] | 4.9 | 2600 | –
4 | Cc1cc(OCCCc2c3n(c4c(-c5c(C)nn(C)c5C)c(Cl)ccc24)[C@H](C)CN(c2cccc4ccc(C(=O)O)cc24)C3=O)cc(C)c1Cl [Example 349, (M, R)-8-(7-Chloro-10-(3-(4-chloro-3,5-dimethylphenoxy)propyl)-4-methyl-1-oxo-6-(1,3,5-trimethyl-1H-pyrazol-4-yl)-3,4-dihydropyrazino[1,2-a]indol-2(1H)-yl)-2-naphthoic acid] | 2.8 | – | 780
5 | Cc1cc(OCCCc2c3n(c4c(-c5c(C)nc(N6CCN(C)CC6)nc5C)c(Cl)ccc24)CCCN(c2cn(C)c4ccc(C(=O)O)cc24)C3=O)cc(C)c1Cl [Example 228, 3-(8-Chloro-11-(3-(4-chloro-3,5-dimethylphenoxy)propyl)-7-(4,6-dimethyl-2-(4-methylpiperazin-1-yl)pyrimidin-5-yl)-1-oxo-4,5-dihydro-1H-[1,4]diazepino[1,2-a]indol-2(3H)-yl)-1-methyl-1H-indole-5-carboxylic acid] | 1.6 | 780 | –
6 | Cc1nn(C)c(C)c1-c1c(Cl)ccc2c(CCCOc3ccc(Cl)cc3)c3n(c12)[C@H](C)CN(c1cn(C)c2ccc(C(=O)O)cc12)C3=O [Example 409, (R)-3-(7-Chloro-10-(3-(4-chlorophenoxy)propyl)-4-methyl-1-oxo-6-(1,3,5-trimethyl-1H-pyrazol-4-yl)-3,4-dihydropyrazino[1,2-a]indol-2(1H)-yl)-1-methyl-1H-indole-5-carboxylic acid] | 1.3 | 2800 | –
7 | COCCn1ncc2c(C(=O)O)cc(N3CCCn4c(c(CCCOc5cc(C)c(Cl)c(C)c5)c5ccc(Cl)c(-c6c(C)nn(C)c6C)c54)C3=O)cc21 [Example 82, 6-[8-Chloro-11-[3-(4-chloro-3,5-dimethyl-phenoxy)propyl]-1-oxo-7-(1,3,5-trimethylpyrazol-4-yl)-4,5-dihydro-3H-[1,4]diazepino[1,2-a]indol-2-yl]-1-(2-methoxyethyl)indazole-4-carboxylic acid] | < 1 | 4800 | –
8 | COc1cnc(-c2ccc3c(c2)c(N2C[C@@H](C)n4c(c(CCCOc5cc(C)c(Cl)c(C)c5)c5ccc(Cl)c(-c6c(C)nn(C)c6C)c54)C2=O)cn3C)nc1 [Example 465, (R)-7-Chloro-10-(3-(4-chloro-3,5-dimethylphenoxy)propyl)-2-(5-(5-methoxypyrimidin-2-yl)-1-methyl-1H-indol-3-yl)-4-methyl-6-(1,3,5-trimethyl-1H-pyrazol-4-yl)-3,4-dihydropyrazino[1,2-a]indol-1(2H)-one] | 1.5 | 690 | –
9 | Cc1cc(OCCCc2c3n(c4c(-c5c(C)nn(C)c5C)c(Cl)ccc24)[C@H](C)CN(c2ccc4c(C(=O)O)cn(C)c4c2)C3=O)cc(C)c1Cl [Example 79, (R)-6-(7-Chloro-10-(3-(4-chloro-3,5-dimethylphenoxy)propyl)-4-methyl-1-oxo-6-(1,3,5-trimethyl-1H-pyrazol-4-yl)-3,4-dihydropyrazino[1,2-a]indol-2(1H)-yl)-1-methyl-1H-indole-3-carboxylic acid] | < 1 | 1500 | –
10 | Cc1nc(-c2ccc3c(c2)c(N2C[C@@H](C)n4c(c(CCCOc5cc(C)c(Cl)c(C)c5)c5ccc(Cl)c(-c6c(C)nn(C)c6C)c54)C2=O)cn3C)no1 [Example 429, (R)-7-Chloro-10-(3-(4-chloro-3,5-dimethylphenoxy)propyl)-4-methyl-2-(1-methyl-5-(5-methyl-1,2,4-oxadiazol-3-yl)-1H-indol-3-yl)-6-(1,3,5-trimethyl-1H-pyrazol-4-yl)-3,4-dihydropyrazino[1,2-a]indol-1(2H)-one] | 1.8 | 970 | –
11 | Cc1cc(OCCCc2c3n(c4c(-c5c(C)nn(C)c5C)c(Cl)ccc24)CCCN(c2cc(C(=O)O)c4c(Br)cn(C)c4c2)C3=O)cc(C)c1Cl [Example 2, 3-Bromo-6-(8-chloro-11-(3-(4-chloro-3,5-dimethylphenoxy)propyl)-1-oxo-7-(1,3,5-trimethyl-1H-pyrazol-4-yl)-4,5-dihydro-1H-[1,4]diazepino[1,2-a]indol-2(3H)-yl)-1-methyl-1H-indole-4-carboxylic acid] | < 1 | 8300 | –
12 | Cc1cc(OCCCc2c3n(c4c(-c5c(C)nn(C)c5C)c(Cl)ccc24)[C@H](C)CN(c2cccc4cc(C(=O)O)n(C(C)c5ccccn5)c24)C3=O)cc(C)c1Cl (stereo partly drawn) [Example 386, 7-((R)-7-Chloro-10-(3-(4-chloro-3,5-dimethylphenoxy)propyl)-4-methyl-1-oxo-6-(1,3,5-trimethyl-1H-pyrazol-4-yl)-3,4-dihydropyrazino[1,2-a]indol-2(1H)-yl)-1-(1-(pyridin-2-yl)ethyl)-1H-indole-2-carboxylic acid] | 3.2 | 3100 | –
13 | Cc1cc(OCCCc2c3n(c4c(-c5c(C)nn(C)c5C)c(Cl)ccc24)[C@H](C)CN(c2nn(CCN4CCOCC4)c4cc(C(=O)O)ccc24)C3=O)cc(C)c1Cl [Example 50, (R)-3-(7-chloro-10-(3-(4-chloro-3,5-dimethylphenoxy)propyl)-4-methyl-1-oxo-6-(1,3,5-trimethyl-1H-pyrazol-4-yl)-3,4-dihydropyrazino[1,2-a]indol-2(1H)-yl)-1-(2-morpholinoethyl)-1H-indazole-6-carboxylic acid] | < 1 | 710 | –
14 | Cc1cc(OCCCc2c3n(c4c(-c5c(C)nc(CN6CCN(C)CC6)nc5C)c(Cl)ccc24)[C@H](C)CN(c2cn(C)c4ccc(C(=O)O)cc24)C3=O)cc(C)c1Cl [Example 396, (R)-3-(7-Chloro-10-(3-(4-chloro-3,5-dimethylphenoxy)propyl)-6-(4,6-dimethyl-2-((4-methylpiperazin-1-yl)methyl)pyrimidin-5-yl)-4-methyl-1-oxo-3,4-dihydropyrazino[1,2-a]indol-2(1H)-yl)-1-methyl-1H-indole-5-carboxylic acid] | 1.8 | < 200 | –
15 | Cc1cc(OCCCc2c3n(c4c(-c5c(C)nn(C)c5C)c(Cl)ccc24)[C@H](C)CN(c2cccc4c2cc(C(=O)O)n4C)C3=O)cc(C)c1Cl [Example 113, (R)-4-(7-Chloro-10-(3-(4-chloro-3,5-dimethylphenoxy)propyl)-4-methyl-1-oxo-6-(1,3,5-trimethyl-1H-pyrazol-4-yl)-3,4-dihydropyrazino[1,2-a]indol-2(1H)-yl)-1-methyl-1H-indole-2-carboxylic acid] | < 1 | 330 | –
16 | CC(=O)Nc1ccc2c(c1)c(N1C[C@@H](C)n3c(c(CCCOc4cc(C)c(Cl)c(C)c4)c4ccc(Cl)c(-c5c(C)nn(C)c5C)c43)C1=O)cn2C [Example 257, N-[3-[(4R)-7-chloro-10-[3-(4-chloro-3,5-dimethyl-phenoxy)propyl]-4-methyl-1-oxo-6-(1,3,5-trimethylpyrazol-4-yl)-3,4-dihydropyrazino[1,2-a]indol-2-yl]-1-methyl-indol-5-yl]acetamide] | 2.3 | 470 | –
17 | Cc1cc(OCCCc2c3n(c4c(-c5c(C)nn(C)c5C)c(Cl)ccc24)[C@H](C)CN(c2cccc4cc(C(=O)O)n(CC5CCCO5)c24)C3=O)cc(C)c1Cl (stereo partly drawn) [Example 326, 7-((R)-7-Chloro-10-(3-(4-chloro-3,5-dimethylphenoxy)propyl)-4-methyl-1-oxo-6-(1,3,5-trimethyl-1H-pyrazol-4-yl)-3,4-dihydropyrazino[1,2-a]indol-2(1H)-yl)-1-((tetrahydrofuran-2-yl)methyl)-1H-indole-2-carboxylic acid] | < 1 | 590 | –
18 | Cc1cc(OCCCc2c3n(c4c(-c5c(C)ncnc5C)c(Cl)ccc24)CCCN(c2cccc4c(C(=O)O)cn(C)c24)C3=O)cc(C)c1Cl [Example 119, 7-[8-chloro-11-[3-(4-chloro-3,5-dimethyl-phenoxy)propyl]-7-(4,6-dimethylpyrimidin-5-yl)-1-oxo-4,5-dihydro-3H-[1,4]diazepino[1,2-a]indol-2-yl]-1-methyl-indole-3-carboxylic acid] | < 1 | 2900 | –
